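Results reflect a 48-hour exposure of cells in 96-well plates to compound at five concentrations. GI50 is the concentration that inhibits growth by half.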 Activity calls are given as the source filed them. Rule as the data show it: active = GI50 up to about 1.1 µM and inactive = higher.
Columns and labels:
Assay in all cases: inhibition of tumour cell growth, NCI panel, 48 h
[1] = system: 786-0
[2] = system: A498
[3] = system: A549
[4] = system: ACHN
[5] = system: BT-549
[6] = system: CAKI-1
[7] = system: CCRF-CEM
[8] = system: COLO 205
[9] = system: DU-145
[10] = system: EKVX
[11] = system: HCC 2998
[12] = system: HCT-116
[13] = system: HCT-15
[14] = system: HL-60
[15] = system: HOP-62
[16] = system: HOP-92
[17] = system: HT-29
[18] = system: Hs-578T
[19] = system: IGROV-1
[20] = system: K562
[21] = system: KM12
[22] = system: LOX IMVI
[23] = system: M14
[24] = system: MCF7
[25] = system: MDA-MB-231
[26] = system: MDA-MB-435
[27] = system: MDA-N
[28] = system: MOLT-4
[29] = system: NCI-H226
[30] = system: NCI-H23
[31] = system: NCI-H522
[32] = system: NCI/ADR-RES
[33] = system: OVCAR-3
[34] = system: OVCAR-4
[35] = system: OVCAR-5
[36] = system: OVCAR-8
[37] = system: PC-3
[38] = system: RPMI-8226
[39] = system: RXF 393
[40] = system: SF-268
[41] = system: SF-295
[42] = system: SF-539
[43] = system: SK-MEL-28
[44] = system: SK-MEL-2
[45] = system: SK-MEL-5
[46] = system: SN12C
[47] = system: SNB-19
[48] = system: SNB-75
[49] = system: SR
[50] = system: SW-620
[51] = system: T47D
[52] = system: TK-10
[53] = system: U-251
[54] = system: UACC-257
[55] = system: UACC-62
[56] = system: UO-31
[57] = system: Malme-3M
[58] = system: NCI-H460
[59] = system: SK-OV-3

Measured: GI50

Oc1ccccc1CNCc1nc2ccccc2[nH]1
inactive: [1] 26.1 µM | [2] > 100 µM | [3] > 100 µM | [4] 12.9 µM | [5] 75.7 µM | [6] 69.3 µM | [7] 29 µM | [8] 29.7 µM | [9] > 100 µM | [10] 36.1 µM | [11] > 100 µM | [12] 37 µM | [14] 40.9 µM | [15] 69 µM | [16] 73.5 µM | [18] > 100 µM | [19] > 100 µM | [20] 51.2 µM | [21] 89.5 µM | [22] 57 µM | [23] 86.3 µM | [24] > 100 µM | [25] 71.9 µM | [26] > 100 µM | [27] > 100 µM | [28] 65.5 µM | [29] 20.9 µM | [30] > 100 µM | [31] > 100 µM | [32] 15.9 µM | [33] 33.7 µM | [34] > 100 µM | [35] > 100 µM | [36] 29 µM | [37] 71.9 µM | [38] 17.7 µM | [39] 75 µM | [40] > 100 µM | [41] 45.8 µM | [42] > 100 µM | [43] > 100 µM | [44] > 100 µM | [45] 22.4 µM | [46] > 100 µM | [47] > 100 µM | [48] 57.4 µM | [49] 50 µM | [50] 55.3 µM | [51] > 100 µM | [52] 83 µM | [53] 41.5 µM | [54] > 100 µM | [55] 78.7 µM | [56] 11.2 µM
active: [17] 0.495 µM
3.01 µM: [13]

CC1(C)C2CCC(=O)C1C(OCc1ccccc1)C2 (stereo unspecified)
inactive: [1] > 100 µM | [2] > 100 µM | [3] 21.9 µM | [4] > 100 µM | [5] 94 µM | [6] 24.1 µM | [7] > 100 µM | [8] > 100 µM | [9] > 100 µM | [11] > 100 µM | [12] > 100 µM | [14] 67.3 µM | [15] > 100 µM | [17] > 100 µM | [18] > 100 µM | [19] > 100 µM | [20] 96.4 µM | [21] > 100 µM | [22] > 100 µM | [23] > 100 µM | [24] > 100 µM | [25] > 100 µM | [26] > 100 µM | [27] > 100 µM | [28] > 100 µM | [57] > 100 µM | [29] > 100 µM | [30] > 100 µM | [58] > 100 µM | [31] > 100 µM | [32] > 100 µM | [33] > 100 µM | [34] > 100 µM | [35] > 100 µM | [36] > 100 µM | [37] > 100 µM | [38] > 100 µM | [39] > 100 µM | [40] > 100 µM | [41] > 100 µM | [42] > 100 µM | [43] > 100 µM | [44] > 100 µM | [45] 17.4 µM | [59] > 100 µM | [46] > 100 µM | [47] > 100 µM | [48] > 100 µM | [49] 29.8 µM | [50] > 100 µM | [51] > 100 µM | [52] > 100 µM | [53] > 100 µM | [54] 85.7 µM | [55] > 100 µM | [56] > 100 µM
> 100 µM: [13]

Cc1ccc(C)c(COCCOCn2cc(N3CCOCC3)c(=O)[nH]c2=O)c1
inactive: [1] > 100 µM | [2] > 100 µM | [3] > 100 µM | [4] > 100 µM | [5] > 100 µM | [6] > 100 µM | [7] > 100 µM | [8] > 100 µM | [9] > 100 µM | [10] > 100 µM | [11] > 100 µM | [12] > 100 µM | [14] 3.63 µM | [16] > 100 µM | [18] 54.6 µM | [19] > 100 µM | [20] > 100 µM | [21] > 100 µM | [22] > 100 µM | [23] > 100 µM | [24] > 100 µM | [25] > 100 µM | [26] > 100 µM | [27] > 100 µM | [28] > 100 µM | [57] > 100 µM | [29] > 100 µM | [30] > 100 µM | [58] > 100 µM | [31] > 100 µM | [32] > 100 µM | [35] > 100 µM | [36] > 100 µM | [37] > 100 µM | [39] > 100 µM | [40] > 100 µM | [41] > 100 µM | [42] > 100 µM | [43] > 100 µM | [44] > 100 µM | [59] > 100 µM | [46] > 100 µM | [47] > 100 µM | [48] > 100 µM | [49] > 100 µM | [50] > 100 µM | [51] > 100 µM | [52] > 100 µM | [53] > 100 µM | [54] > 100 µM | [55] > 100 µM | [56] > 100 µM
> 100 µM: [13]

O=C(/C=C/c1ccsc1)c1cccs1
inactive: [1] 49.3 µM | [2] > 100 µM | [3] 33 µM | [4] 52.1 µM | [5] 20.8 µM | [6] 27.3 µM | [7] 18.5 µM | [8] 34.1 µM | [9] > 100 µM | [10] 41.3 µM | [11] 19.7 µM | [12] 15.6 µM | [15] > 100 µM | [16] 29.4 µM | [17] 36.9 µM | [18] 40.3 µM | [19] 53.2 µM | [20] 28.2 µM | [21] 19.4 µM | [23] 22.8 µM | [24] 17 µM | [25] 36 µM | [26] > 10 µM | [27] 35 µM | [28] > 10 µM | [57] 50 µM | [29] > 100 µM | [30] 22.5 µM | [58] 41.7 µM | [31] 18.7 µM | [32] 20.7 µM | [33] 22.1 µM | [34] 44.8 µM | [35] 44.1 µM | [36] > 10 µM | [37] 69.5 µM | [39] 18.9 µM | [40] 28.2 µM | [41] 64.7 µM | [42] 32.9 µM | [43] 20.9 µM | [45] 14.6 µM | [59] 39.1 µM | [46] 19.5 µM | [47] 42.6 µM | [48] > 100 µM | [49] > 10 µM | [50] 17.3 µM | [51] 20 µM | [52] 23.1 µM | [53] 20.5 µM | [54] 66.8 µM | [55] 25.4 µM | [56] 18.5 µM
18.7 µM: [13]

Source: ChEMBL document CHEMBL1201862, “PubChem BioAssay data set” (2004)
